pEC50, pIC50: −log10 of the molar value. Values joined by “and” are separate entries in the source; they are usually repeats but may differ in a detail not shown here. Equal entries are not always repeated. Active and inactive are the calls of the source.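 The calls were made as follows: active = compounds giving half or more protection of infected cells from virus-caused growth loss, again on retest; inactive = the rest.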
Tested on: CEM cells HIV-1 protection, formazan growth assay
Test: NCI AIDS Antiviral Assay
Details: for pIC50: measured here: growth of uninfected CEM cells
How it was run: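 CEM (human) cells, HIV-1 infected vs uninfected, 5-point dosing, formazan growth read-out. Retest threshold 50% protection.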

Compound	pEC50	pIC50	outcome
CCCCCCCCCCCCOc1ccc(/C(=N\N=C(N)N)c2ccccc2)c(O)c1	< 3.70	< 3.70	
Cc1cn(C2CCC(COP(=O)(OCC(=O)c3ccccc3)OCC(=O)c3ccccc3)O2)c(=O)[nH]c1=O (centres undefined)	4.71	< 3.70	
Cc1ccc(C(=O)Oc2ccc(/C=C3\CCC/C(=C\c4ccc(OC(=O)c5ccc(C)cc5)cc4)C3=O)cc2)cc1	< 4.00	< 4.00	
Cc1cn2cc(-c3cccs3)nc2s1	< 3.70	4.06	
COc1ccc(/C=C(\Cl)c2ccc(OC)cc2)cc1	< 3.70	< 3.70	
CC(C)O[C@H]1N(C2CC(N=[N+]=[N-])C(CO)O2)C(=O)NC(=O)[C@]1(C)Br (some centres undefined)	5.54	< 3.70	
COc1ccc(N2C(=O)C3c4[nH]c5ccc([N+](=O)[O-])cc5c4C4CCC(C(C)(C)C)CC4C3C2=O)cc1 (centres undefined)	< 3.70	4.74	
COc1ccc(O)c2c1C(=O)CCCC2=O			inactive
O=c1c(SCc2ccc(Cl)cc2)c(N2CCOCC2)cnn1-c1ccccc1	< 4.20	4.35	
O=C(O)c1cc2cc([N+](=O)[O-])ccc2oc1=O	< 3.35	< 3.35	
CC1(C)SCCCCCCCSC(C)(C)SCCCCCCCS1	< 4.20	< 4.20	
COC(=O)/C=C(\C(=O)OC)C1C(=O)Oc2c(C)c(=O)c3ccccc3n21 (centres undefined)	< 3.70	4.22	
CC(C)OCN1COCN=C1NC#N	< 3.35	< 3.35	
O=C1NC(=O)C2C1c1[nH]c3ccccc3c1C1CCCC12 (centres undefined)			inactive
CC(=O)OC(C)CC[P+](c1ccccc1)(c1ccccc1)c1ccccc1 (centres undefined)	< 3.70	4.12	
CCCCCCCNC(C)(C)C(SSSC(c1ccc(Cl)cc1)C(C)(C)NCCCCCCC)c1ccc(Cl)cc1 (centres undefined)	< 4.00	< 4.00	
CCCCCC=C(c1cc(Cl)c(OC)c(C(=O)O)c1)c1cc(Cl)c(OC)c(C(=O)O)c1	3.89 and < 3.90	3.81 and 4.08	
O=C(c1ccco1)N(Cc1ccco1)C(=S)Nc1ccccc1	< 3.70	4.92	
CC1=Nc2ccccc2N=C(c2c(O)c3c(ccc4ccccc43)oc2=O)C1	< 3.70	4.70	
CCOC(=O)CNC(=O)Sc1ccccc1C(=O)N[C@@H](C)C(N)=O	5.74	4.01	
C[C@@]1(OC(=O)c2cc([N+](=O)[O-])cc([N+](=O)[O-])c2)C[C@@H]2CCCC[C@@H]21			inactive
CCOC(=O)CNC1C(NC(C)=O)C(OC)OC2COC(c3ccccc3)OC21 (centres undefined)			inactive

Compound	pEC50	pIC50	outcome
C/C(=N\N=C(\N)SB(F)F)c1ccc2ccccc2c1	< 3.70	4.53	
O=C1c2cc3c(cc2CC12Cc1cc4c(cc1C2=O)CCCC4)CCCC3	< 3.70	< 3.70	
CCC1Oc2c(CC=C(C)C)c(O)c(C(O)C(C)CC)c3oc(=O)cc1c23 (centres undefined)	< 3.70	4.58	
O=C1NCC(c2ccccc2)(c2ccccc2)O1	< 3.70	3.82	
CC1CC(=O)c2ccccc2O1 (centres undefined)	< 3.70	< 3.70	
CC1=CC(=O)C(=CN2C(=O)/C(=C\c3cccnc3)NC2=S)C(=O)O1	< 3.70	< 3.70	
CC1=C(C(N)=O)C(c2ccncc2)C(C#N)C(=O)N1 (centres undefined)	< 3.70	3.84	
COC1(C)C(=O)N2C1N(C(C)=O)CC2(C)C (centres undefined)	< 3.30	< 3.30	
CN1C(=O)C2CCC(=O)N2c2cccnc21 (centres undefined)	< 3.70	< 3.70	
O=C(O)C12C(=O)NC(=O)C1(C(=O)O)C21CCCCC1 (centres undefined)	< 3.03	< 3.03	
Cc1ccc(C2(O)CSC(=NC34CC5CC(CC(C5)C3)C4)N2C(P(=O)(O)O)P(=O)(O)O)cc1 (centres undefined)	< 3.70	4.39	
c1ccc(NCn2cnc3ccccc32)cc1			inactive
COc1ccc(C(Cc2ccccc2)C2NC(=S)NC2=O)cc1 (centres undefined)	< 3.70	4.23	
CC(C)(O)[C@H]1CC[C@@]23CCCC(=O)C2(C1)C3 (some centres undefined)			inactive
COC(=O)c1nc(N)[nH]c(=O)c1CCCCCc1c(C(=O)OC)nc(N)[nH]c1=O	< 4.75	< 4.75	
Nc1ccn(C2OC(CO)C(O)C2O)c(=O)n1 (centres undefined)	< 5.70	8.56	
Cc1cc2c(c(C=Nc3ccccc3O)c1)OC1(C=C2)Oc2ccccc2C(=O)N1C (centres undefined)	< 3.70	4.60	
Cc1ccc(NC(=S)N/N=C(/c2ccccc2)c2ccccn2)cc1	< 6.70	6.98	
CC1(C)C2C=CC1(C)C1(CC2)OCCO1 (centres undefined)	< 3.70	< 3.70	
c1ccc2[nH]c(CSc3nc4ccccc4[nH]3)nc2c1	< 3.70	< 3.70	
Cc1cc(C)c(C(=O)c2c(C)cccc2C(=O)O)c(C)c1	< 3.70	< 3.70	
CCCCC(C=O)(C=C=C(C)C)CC (centres undefined)	< 3.47	4.46	

Compound	pEC50	pIC50	outcome
O=C(CCc1ccccc1)n1cccc1CO	< 3.70	4.25	
Cc1ccc(S(=O)(=O)N=NC=C2c3ccccc3N(O)c3ccccc32)cc1			inactive
Cc1ccc(SC2CC3CC2C2COCC32)cc1 (centres undefined)	< 4.07	4.32	
O=C(Nn1c(-c2ccccc2)nc2ccccc2c1=O)c1ccc(CS)cc1			inactive
COc1ccc(-n2c(=O)c3[nH]cnc3n(-c3ccc(OC)cc3)c2=S)cc1	< 3.70	< 3.70	
N[C@H](CCOc1ccc(/C(=N/O)C(=O)N[C@H]2CN([C@@H](C(=O)O)c3ccc(O)cc3)C2=O)cc1)C(=O)O	< 3.70	< 3.70	
COc1ccc2c(c1)CC1(O)COc3cc(OC)ccc3C1O2 (centres undefined)	< 3.70	4.17	
S=C1C(=Nc2ccccc2)N(c2ccccc2)/C(=N\c2ccccn2)N1c1ccccc1	< 3.70	5.20	
CN(C)Nc1cc(=O)[nH]c(=O)[nH]1	< 3.70	< 3.70	
O=c1[nH]nc(-c2ccccc2)n1-c1ccncc1	< 3.70	< 3.70	
Nc1ccc(Nc2cc(=O)[nH]c(=O)[nH]2)cc1	< 3.70	< 3.70	
NC(=O)c1ncn(C/C=C/CO)c1N	< 3.70	< 3.70	
CCOC(=O)C1(C#N)C2(C#N)C(N)=NC(ON=C(C)C)(ON=C(C)C)C12C#N (centres undefined)	< 3.70	< 3.70	
CCOC(=O)C1=C(C)N(NC(N)=O)C2(N)N(NC(N)=O)C(C)=C(C(=O)OCC)C12C#N (centres undefined)	< 3.24	3.37	
NS(=O)(=O)OCCCCCCCOS(N)(=O)=O	< 3.06	4.87	
CCOC(=O)C1=CNC(C(=O)OCC)C1c1cccn1-c1ccc(Cl)cc1[N+](=O)[O-] (centres undefined)	< 3.70	4.58	
O=C(NC(CSSCC(NC(=O)c1cnc2ccccc2n1)C(=O)O)C(=O)O)c1cnc2ccccc2n1 (centres undefined)	< 3.70	< 3.70	
CCCCCCCCOc1ccc(C(=O)c2ccccc2)c(O)c1	< 3.70	4.02	
Cn1c(=O)oc2cc(C(=O)CSC(=S)N3CCCCCC3)ccc21	< 3.70	3.87	
O=C(O)/C=C\C(=O)NNC(=O)/C=C\C(=O)O	< 2.96	< 2.96	
CC(=O)OC1CCC2(C)C(=CCC3C2CCC2(C)C3CC3N(c4ccccc4)C32C(C)=O)C1 (centres undefined)	5.19	4.70	
CCCC(=O)C1=C(O)C(Cc2c(O)c(C)c(O)c(C(=O)CCC)c2O)=C(O)C(C)(C)C1=O	< 3.70	4.97	

Compound	pEC50	pIC50	outcome
COC(=O)C1CC=C(SC(=O)c2ccccc2)N1C(=O)c1ccccc1 (centres undefined)	< 3.70	< 3.70	
CCOc1cc(N=Nc2cc(Cl)c(S(=O)(=O)O)cc2Cl)c2cc(S(=O)(=O)O)ccc2c1N=Nc1c(S(=O)(=O)O)cc2cc(NC(=O)c3ccc(N)cc3)ccc2c1O			active
N#Cc1nc(Nc2cccc3ccccc23)sc1N	< 3.87	4.22	
COc1cc(Nc2cnc3cc(F)c(F)cc3n2)cc(OC)c1OC	< 3.70	< 3.70	
CCOC(=O)C1=C(Nc2ccc(Cl)cc2Cl)OC/C1=N\NS(=O)(=O)c1ccc(C)cc1	< 4.55	< 4.55	
NC(=Nc1ccccc1)N(c1ccccc1)c1nc(=S)ss1	< 3.70	4.08	
CC(C)=CCc1cc(C2CC(=O)c3c(O)cc(O)cc3O2)cc(CC=C(C)C)c1O (centres undefined)			inactive
CC(=O)OCC1OC(c2c(OC(C)=O)cc(C)c3c(=O)cc(/C(C(C)=O)=C(\C)O)oc23)C(OC(C)=O)C(OC(C)=O)C1OC(C)=O (centres undefined)	< 3.70	< 3.70	
Cc1nc2c(n1-c1ccc(Br)cc1)C(=O)c1ccccc1C2=O	< 4.31	5.28	
Cc1c(/C=N/N=C/c2[nH]c(C(=O)OC(C)(C)C)c(C)c2C)[nH]c(C(=O)OC(C)(C)C)c1C			inactive
O=C1O/C(=C(/Br)c2ccc(Cl)c(Cl)c2)c2ccccc21	< 3.70	4.93	
CP(=O)(O)C(N)Cc1c[nH]c2ccccc12 (centres undefined)	< 4.00	< 4.00	
N#C/C(=C\c1cc(O)c(O)c(Br)c1)C(=O)NCCCNC(=O)/C(C#N)=C/c1cc(O)c(O)c(Br)c1	< 3.70	3.95	
CC1CN=C(N(C(=O)Nc2ccc(Cl)c(Cl)c2)c2ccccc2)S1 (centres undefined)	< 3.70	< 3.70	
COC(=O)c1cc2cc3c(c(O)c2c(=O)o1)O[C@@]1(Oc2c(O)c4c(c(O)c2[C@H]1OC1CC(OC)C(O)C(C)O1)C(=O)C=C(OC)C4=O)[C@H](O)C3 (some centres undefined)	< 3.70	5.48	
Nc1nc(=S)ss1	< 3.70	3.81	
Cc1ccc(NC(=O)/C(Cl)=C(/Cl)C(=O)O)cc1			inactive
NC1CC(=O)c2cc(Cl)sc21 (centres undefined)	< 3.70	< 3.70	
COc1ccc(C(c2ccc(OC)cc2)N2C(=O)CCC2C(=O)O)cc1 (centres undefined)	< 3.70	< 3.70	
C[CH2][Sn]([CH2]C)([O]C(=O)c1cccc(F)c1)[O][Sn]([CH2]C)([CH2]C)[O]C(=O)c1cccc(F)c1	< 5.23	< 5.23	
CC(C)(C)OC(=O)NCC(O)CNC(=O)OC(C)(C)C	< 3.06	< 3.06	
O=[p+]1c2ccccc2[nH]c2ccccc21	< 3.70	4.25	
